Species: Rattus norvegicus
Assay: DrugMatrix - Regimen: Daily Repeat
Format: toxicity, organism-based, Sprague-Dawley
Design: regimen Daily Repeat, gender Male, age 6-8 weeks
Details: in vivo, sc, route subcutaneous, vehicle 100 % WATER; for ABSOLUTE BASOPHIL / ABSOLUTE EOSINOPHIL / ABSOLUTE LYMPHOCYTE / ABSOLUTE MONOCYTE / ABSOLUTE SEGMENTED NEUTROPHIL / BASOPHIL / EOSINOPHIL / ERYTHROCYTE COUNT / HEMATOCRIT / HEMOGLOBIN / LEUKOCYTE COUNT / LYMPHOCYTE / MEAN CORPUSCULAR HEMOGLOBIN / MEAN CORPUSCULAR HEMOGLOBIN CONCENTRATION / MEAN CORPUSCULAR VOLUME / MONOCYTE / NEUTROPHIL / NUCLEATED RED BLOOD CELLS / PLATELET COUNT: tissue Blood; for ALANINE AMINOTRANSFERASE / ALBUMIN / ALKALINE PHOSPHATASE / ASPARTATE AMINOTRANSFERASE / BLOOD UREA NITROGEN / CARBON DIOXIDE / CHLORIDE / CHOLESTEROL / CREATINE PHOSPHOKINASE / CREATININE / GLUCOSE / LACTATE DEHYDROGENASE / LIPASE / PHOSPHORUS / POTASSIUM / SODIUM / TOTAL BILIRUBIN / TOTAL PROTEIN / URIC ACID: tissue Plasma
[1] = 20 mg/kg, 72 h, dose level Low, time 3 day
[2] = 20 mg/kg, 120 h, dose level Low, time 5 day
[3] = 71 mg/kg, 72 h, dose level High, time 3 day
[4] = 71 mg/kg, 120 h, dose level High, time 5 day

`CCN(CC)CC(=O)Nc1c(C)cccc1C` [LIDOCAINE] was tested, and the “ABSOLUTE BASOPHIL” value [1] was 0 CELLS/uL, the “ABSOLUTE EOSINOPHIL” value [1] was 58 CELLS/uL and the “ABSOLUTE LYMPHOCYTE” value [1] was 13101.33 CELLS/uL. For the same compound, the “ABSOLUTE MONOCYTE” value [1] was 107 CELLS/uL, the “ABSOLUTE SEGMENTED NEUTROPHIL” value [1] was 1100.33 CELLS/uL and the BASOPHIL [1] was 0%. The EOSINOPHIL [1] was 0.33%, the “ERYTHROCYTE COUNT” value [1] was 5.32 x10E6/uL and the HEMATOCRIT [1] was 35.17%. For the same compound, the HEMOGLOBIN [1] was 13.77 G/DL, the “LEUKOCYTE COUNT” value [1] was 14.37 x10E3/uL and the LYMPHOCYTE [1] was 91.33%. The “MEAN CORPUSCULAR HEMOGLOBIN” value [1] was 25.9 pg, the “MEAN CORPUSCULAR HEMOGLOBIN CONCENTRATION” value [1] was 39.17 G/DL and the “MEAN CORPUSCULAR VOLUME” value [1] was 66.2 fL. For the same compound, the MONOCYTE [1] was 0.67%, the NEUTROPHIL [1] was 7.67% and the “NUCLEATED RED BLOOD CELLS” value [1] was 0 /100WBC. For the same compound, the “PLATELET COUNT” value [1] was 1245 x10E3/uL, the “ALANINE AMINOTRANSFERASE” value [1] was 52.67 u/L and the ALBUMIN [1] was 4.23 G/DL. For the same compound, the “ALKALINE PHOSPHATASE” value [1] was 369 u/L, the “ASPARTATE AMINOTRANSFERASE” value [1] was 87.33 u/L and the “BLOOD UREA NITROGEN” value [1] was 16 mg/dL. The “CARBON DIOXIDE” value [1] was 26.67 mmol/L, the CHLORIDE [1] was 102.67 MEQ/L and the CHOLESTEROL [1] was 79.33 mg/dL. The “CREATINE PHOSPHOKINASE” value [1] was 215.67 u/L, the CREATININE [1] was 0.21 mg/dL and the GLUCOSE [1] was 154.67 mg/dL. For the same compound, the “LACTATE DEHYDROGENASE” value [1] was 355.67 u/L, the LIPASE [1] was 9.67 u/L and the PHOSPHORUS [1] was 15.3 mg/dL. For the same compound, the POTASSIUM [1] was 7.3 MEQ/L, the SODIUM [1] was 148.67 MEQ/L and the “TOTAL BILIRUBIN” value [1] was 0.23 mg/dL. The “TOTAL PROTEIN” value [1] was 6.03 G/DL, the “URIC ACID” value [1] was 1.9 mg/dL and the “ABSOLUTE BASOPHIL” value [2] was 0 CELLS/uL. The “ABSOLUTE EOSINOPHIL” value [2] was 102.67 CELLS/uL, the “ABSOLUTE LYMPHOCYTE” value [2] was 14629.33 CELLS/uL and the “ABSOLUTE MONOCYTE” value [2] was 338.67 CELLS/uL. For the same compound, the “ABSOLUTE SEGMENTED NEUTROPHIL” value [2] was 1862.67 CELLS/uL, the BASOPHIL [2] was 0% and the EOSINOPHIL [2] was 0.67%. For the same compound, the “ERYTHROCYTE COUNT” value [2] was 5.48 x10E6/uL, the HEMATOCRIT [2] was 33.93% and the HEMOGLOBIN [2] was 13.57 G/DL. For the same compound, the “LEUKOCYTE COUNT” value [2] was 16.93 x10E3/uL, the LYMPHOCYTE [2] was 86.67% and the “MEAN CORPUSCULAR HEMOGLOBIN” value [2] was 24.77 pg. The “MEAN CORPUSCULAR HEMOGLOBIN CONCENTRATION” value [2] was 40 G/DL, the “MEAN CORPUSCULAR VOLUME” value [2] was 61.93 fL and the MONOCYTE [2] was 2%. For the same compound, the NEUTROPHIL [2] was 10.67%, the “NUCLEATED RED BLOOD CELLS” value [2] was 0 /100WBC and the “PLATELET COUNT” value [2] was 1256.33 x10E3/uL. For the same compound, the “ALANINE AMINOTRANSFERASE” value [2] was 59.33 u/L, the ALBUMIN [2] was 3.73 G/DL and the “ALKALINE PHOSPHATASE” value [2] was 375.67 u/L. The “ASPARTATE AMINOTRANSFERASE” value [2] was 92 u/L, the “BLOOD UREA NITROGEN” value [2] was 17.67 mg/dL and the “CARBON DIOXIDE” value [2] was 26 mmol/L. For the same compound, the CHLORIDE [2] was 108 MEQ/L, the CHOLESTEROL [2] was 77.33 mg/dL and the “CREATINE PHOSPHOKINASE” value [2] was 284 u/L. The CREATININE [2] was 0.28 mg/dL, the GLUCOSE [2] was 183.33 mg/dL and the “LACTATE DEHYDROGENASE” value [2] was 154.67 u/L. The LIPASE [2] was 7.67 u/L, the PHOSPHORUS [2] was 13.6 mg/dL and the POTASSIUM [2] was 6.31 MEQ/L. The SODIUM [2] was 149.97 MEQ/L, the “TOTAL BILIRUBIN” value [2] was 0.2 mg/dL and the “TOTAL PROTEIN” value [2] was 5.93 G/DL. For the same compound, the “URIC ACID” value [2] was 2.2 mg/dL, the “ABSOLUTE BASOPHIL” value [3] was 0 CELLS/uL and the “ABSOLUTE EOSINOPHIL” value [3] was 49.33 CELLS/uL. The “ABSOLUTE LYMPHOCYTE” value [3] was 11993.67 CELLS/uL, the “ABSOLUTE MONOCYTE” value [3] was 172.33 CELLS/uL and the “ABSOLUTE SEGMENTED NEUTROPHIL” value [3] was 684.67 CELLS/uL. The BASOPHIL [3] was 0%, the EOSINOPHIL [3] was 0.33% and the “ERYTHROCYTE COUNT” value [3] was 5.73 x10E6/uL. The HEMATOCRIT [3] was 35.87%, the HEMOGLOBIN [3] was 14.23 G/DL and the “LEUKOCYTE COUNT” value [3] was 12.9 x10E3/uL. The LYMPHOCYTE [3] was 92.67%, the “MEAN CORPUSCULAR HEMOGLOBIN” value [3] was 24.83 pg and the “MEAN CORPUSCULAR HEMOGLOBIN CONCENTRATION” value [3] was 39.7 G/DL. For the same compound, the “MEAN CORPUSCULAR VOLUME” value [3] was 62.57 fL, the MONOCYTE [3] was 1.33% and the NEUTROPHIL [3] was 5.67%. For the same compound, the “NUCLEATED RED BLOOD CELLS” value [3] was 0 /100WBC, the “PLATELET COUNT” value [3] was 1268.67 x10E3/uL and the “ALANINE AMINOTRANSFERASE” value [3] was 46.33 u/L. For the same compound, the ALBUMIN [3] was 4.37 G/DL, the “ALKALINE PHOSPHATASE” value [3] was 401 u/L and the “ASPARTATE AMINOTRANSFERASE” value [3] was 83.67 u/L. For the same compound, the “BLOOD UREA NITROGEN” value [3] was 14.67 mg/dL, the “CARBON DIOXIDE” value [3] was 31.33 mmol/L and the CHLORIDE [3] was 101 MEQ/L. For the same compound, the CHOLESTEROL [3] was 76 mg/dL, the “CREATINE PHOSPHOKINASE” value [3] was 167 u/L and the CREATININE [3] was 0.16 mg/dL. For the same compound, the GLUCOSE [3] was 163.67 mg/dL, the “LACTATE DEHYDROGENASE” value [3] was 124.67 u/L and the LIPASE [3] was 8.67 u/L. For the same compound, the PHOSPHORUS [3] was 15.9 mg/dL, the POTASSIUM [3] was 7.01 MEQ/L and the SODIUM [3] was 145.9 MEQ/L. The “TOTAL BILIRUBIN” value [3] was 0.17 mg/dL, the “TOTAL PROTEIN” value [3] was 6.07 G/DL and the “URIC ACID” value [3] was 1.8 mg/dL. The “ABSOLUTE BASOPHIL” value [4] was 0 CELLS/uL, the “ABSOLUTE EOSINOPHIL” value [4] was 73.33 CELLS/uL and the “ABSOLUTE LYMPHOCYTE” value [4] was 17902.33 CELLS/uL. For the same compound, the “ABSOLUTE MONOCYTE” value [4] was 276 CELLS/uL, the “ABSOLUTE SEGMENTED NEUTROPHIL” value [4] was 1781.67 CELLS/uL and the BASOPHIL [4] was 0%. The EOSINOPHIL [4] was 0.33%, the “ERYTHROCYTE COUNT” value [4] was 5.66 x10E6/uL and the HEMATOCRIT [4] was 36.7%. The HEMOGLOBIN [4] was 14.53 G/DL, the “LEUKOCYTE COUNT” value [4] was 20.03 x10E3/uL and the LYMPHOCYTE [4] was 89%. The “MEAN CORPUSCULAR HEMOGLOBIN” value [4] was 25.67 pg, the “MEAN CORPUSCULAR HEMOGLOBIN CONCENTRATION” value [4] was 39.6 G/DL and the “MEAN CORPUSCULAR VOLUME” value [4] was 64.93 fL. The MONOCYTE [4] was 1.33%, the NEUTROPHIL [4] was 9.33% and the “NUCLEATED RED BLOOD CELLS” value [4] was 0 /100WBC. For the same compound, the “PLATELET COUNT” value [4] was 1384.67 x10E3/uL, the “ALANINE AMINOTRANSFERASE” value [4] was 60 u/L and the ALBUMIN [4] was 4.13 G/DL. The “ALKALINE PHOSPHATASE” value [4] was 376.33 u/L, the “ASPARTATE AMINOTRANSFERASE” value [4] was 98.33 u/L and the “BLOOD UREA NITROGEN” value [4] was 15.33 mg/dL. The “CARBON DIOXIDE” value [4] was 33.67 mmol/L, the CHLORIDE [4] was 101 MEQ/L and the CHOLESTEROL [4] was 68.33 mg/dL. For the same compound, the “CREATINE PHOSPHOKINASE” value [4] was 240.33 u/L, the CREATININE [4] was 0.42 mg/dL and the GLUCOSE [4] was 147.33 mg/dL. The “LACTATE DEHYDROGENASE” value [4] was 198 u/L, the LIPASE [4] was 10.67 u/L and the PHOSPHORUS [4] was 14.23 mg/dL. The POTASSIUM [4] was 6.88 MEQ/L, the SODIUM [4] was 148.27 MEQ/L and the “TOTAL BILIRUBIN” value [4] was 0.2 mg/dL. The “TOTAL PROTEIN” value [4] was 6.17 G/DL and the “URIC ACID” value [4] was 1.4 mg/dL.
